Reference: ChEMBL document CHEMBL3098080, “Replacement of amide with bioisosteres led to a new series of potent adenosine A2A receptor antagonists” (Bioorg Med Chem Lett, 2014)

What was measured:
[1] = target: T1, Adenosine receptor A2a (Homo sapiens, UniProt P29274); experiment: Displacement of [3H]-ZM241385 from human adenosine A2A receptor expressed in HEK293 cells; assay type: cell-based
[2] = target: T1, Adenosine receptor A2a; experiment: Inhibition of adenosine A2A receptor (unknown origin) at 100 umol/L relative to control
[3] = Chemical stability in 0.2N HCl in methanol after 24 hrs; assay type: physicochemical

T1 sequence (P29274 whole entry): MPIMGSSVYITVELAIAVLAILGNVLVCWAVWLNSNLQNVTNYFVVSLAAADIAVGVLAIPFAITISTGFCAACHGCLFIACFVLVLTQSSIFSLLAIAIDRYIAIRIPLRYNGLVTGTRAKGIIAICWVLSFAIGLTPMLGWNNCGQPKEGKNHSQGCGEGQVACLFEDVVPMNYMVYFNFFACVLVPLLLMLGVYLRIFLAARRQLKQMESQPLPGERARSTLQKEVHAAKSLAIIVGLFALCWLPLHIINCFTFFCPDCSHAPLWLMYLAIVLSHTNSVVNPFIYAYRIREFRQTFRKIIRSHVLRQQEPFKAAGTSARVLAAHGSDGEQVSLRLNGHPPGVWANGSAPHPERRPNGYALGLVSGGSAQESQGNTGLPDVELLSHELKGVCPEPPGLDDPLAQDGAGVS

Ki [1] [nM]	inhibition [2] [%]	Stability [3]	Compound
1	120		COCCOc1ccc(N2CCN(CCn3ncc4c3nc(N)n3nc(-c5ccco5)nc43)CC2)cc1 [PRELADENANT]
24	115	Stable	COC[C@H]1CCCN1c1cc(NCC(F)(F)F)nc(-n2nc(C)cc2C)n1
9.5	123	Stable	COC[C@H]1CCCN1c1cc(Nc2nccs2)nc(-n2nc(C)cc2C)n1
45	124	Stable	COC[C@H]1CCCN1c1cc(Nc2ccccn2)nc(-n2nc(C)cc2C)n1
	71		COC[C@H]1CCCN1c1cc(Nc2ncccn2)nc(-n2nc(C)cc2C)n1
	64		Cc1cc(C)n(-c2nc(NCC(F)(F)F)cc(N3CCc4ccccc4C3)n2)n1
	58		Cc1cc(C)n(-c2nc(Nc3nccs3)cc(-n3cccn3)n2)n1
66	117		Cc1cc(C)n(-c2nc(Nc3nccs3)cc(N3CCc4ccccc4C3)n2)n1
	-5		Cc1cc(C)n(-c2nc(Nc3ncccn3)cc(N3CCc4ccccc4C3)n2)n1
	23		Cc1cc(C)n(-c2nc(Nc3ncccn3)cc(-n3cccn3)n2)n1
65	95		Cc1cc(C)n(-c2nc(Nc3ccccn3)cc(N3CCc4ccccc4C3)n2)n1
52	117		Cc1cc(C)n(-c2nc(NCC(F)(F)F)cc(-n3cccn3)n2)n1
43	117		Cc1cc(C)n(-c2nc(Nc3cnccn3)cc(-n3cccn3)n2)n1
1.1	121		Cc1cc(C)n(-c2nc(Nc3cnccn3)cc(N3CCc4ccccc4C3)n2)n1
69	124	Stable	COC[C@H]1CCCN1c1cc(Nc2cnccn2)nc(-n2nc(C)cc2C)n1
15	123		COC[C@H]1CCCN1c1cc(NC(C)=O)nc(-n2nc(C)cc2C)n1
9.2	117		Cc1cc(C)n(-c2nc(Nc3ccccn3)cc(-n3cccn3)n2)n1
